Test results published in patent publication US11156599B2, “Assay for telomere length regulators” (The Johns Hopkins University, priority 2015, dated 2021).

Key:
Type in all cases: cell-based, mouse
[1] = tested on: de novo telomere addition on chr4 in SL13 cells; test: ADDIT assay (Addition of de novo initiated telomeres): modified STELA PCR and PacBio sequencing
Excerpt: To examine potential mammalian genes that regulate telomere length, an assay was developed that allows visualization of telomere addition in vivo, referred here as ADDIT (Addition of de novo initiated telomeres). In a chromosomally stable CASTEiJ mouse fibroblast cell line, chromosome 4 (chr4) was modified to generate an internal 480 bp telomere ‘seed’ sequence followed by a unique I-Sce1 endonuclease cut site (FIG. 1A). The length of seed sequence was based on an early study showing that 400 bp of telomere repeats can act as functional telomeres. Using Southern blot analysis, two independent HYG-positive clones were identified, clone 1L and 1M, with a single chr4 allele correctly modified (data not shown).
To better visualize the telomere addition on the I-Sce1 cut telomere seed, the single telomere length analysis (STELA) (Baird et al., 2004, Hum Mol Genet 13, 1515-1524), a PCR-based approach that can measure telomere lengths from individual chromosome ends was modified. The STELA assay employs annealing and ligation of a linker, ‘telorette’, with TTAGGG and a unique 20-nucleotide sequence to the G-rich 3′ telomere overhang followed by PCR of the telomere from a ‘teltail’ primer and primer in the HYG sequence on the engineered chromosome (FIG. 2). The PCR product lengths will be proportional to the telomere lengths at the cleaved chr4 allele. As a control, to amplify the un-extended cut chromosome in vitro, a different linker, ‘IScerette’ was designed, which has a 4-nt homology to the 4-nt 3′ overhang created by the I-Sce1 endonuclease at the cleavage site (FIG. 2). […] This in vitro IScerette PCR product serves as a marker for the base line length of the cut, unextended telomere seed sequence.
To further verify the longer STELA PCR products represent de novo telomere addition, the PCR products were sequenced with Pacific Biosciences (PACBIO®) next generation sequencing technology. The PACBIO® platform produces longer reads and is less GC bias compared to other next generation sequencing platforms. While errors were present in the sequence as expected, the telomere repeats were easily recognizable. All of the reads from the PACBIO® were filtered and only those that had unique HYG sequence followed by telomere sequence and the ‘teltail’ primer sequence were examined. This assures that only full length of STELA PCR products were analyzed. The reads were then aligned at the junction between the HYG sequence and the telomere repeats. Wild-type TTAGGG repeats were colored orange and variant telomere repeats were colored in darker orange (FIG. 3A). Some of these variants arose due to errors in sequencing. An error rate similar to the published error rate of PACBIO® sequencing, 10-15% was observed. The errors were uniformly distributed over the reference sequence, dominated by point insertions and deletions, as expected for PACBIO® sequencing. There were three regions of divergent sequence in the original construct that are evident as darker orange stripes in the aligned reads (see for reference, in vitro IScelrette). These are small variation in TTAGGG sequence in the original SL13 clone and serve as useful internal reference points.
The original STELA protocol used for human cells (Baird et al., 2004, Hum Mol Genet 13, 1515-1524) was modified to measure telomere lengths on the de novo end of chr4 in SL13 cells. Briefly, genomic DNA was extracted using Puregene Core Kit A ^TM (Qiagen). 4 μg of genomic DNA was digested with SphI (NEB) and later diluted to 10 ng/μl in water. For the in vitro IScerette sample, genomic DNA was digested with SphI and I-SceI (NEB) prior to ligation. The ligation was carried out at 35° C. for at least 12 hrs in a volume of 10 μl containing 10 ng of digested genomic DNA, 0.9 μM of telorette linkers (mixture of telorette 1 to 6) or IScerette linker and 0.5 U of T4 DNA ligase (NEB) in 1× T4 ligation buffer. […]

SL13 cells [2] = test: Cell cycle profile by propidium iodide staining and flow cytometry; settings: 200 ng/ml colcemid or 2.5 mM thymidine, 24 hrs
Method: SL13 cells were grown in DMEM (Gibco) supplemented with 1% Penicillin/Streptomycin/Glutamine and 10% Tet system approved FBS (Clontech, #631107). Final concentration of 2 μg/ml of doxycycline was added in the media to induce I-Sce1 expression. Typically cells were collected post 48 hours of doxcycline treatment. To arrest cells in different cell cycle phases, cells were treated with either final concentration of 200 ng/ml colcemid (Gibco KaryoMAX Colcemid Solution, #15212-012) or 2.5 mM Thymidine (Sigma, #T-1895).
Cell cycle phase was accessed by DNA content using propidium iodide (PI) staining and flow cytometry analysis. Briefly, cell pellets were washed with 1× PBS at 500× g for 5 minutes and resuspended in 500 μl of 1× PBS. 4.5 ml of ice cold 70% ethanol was added drop by drop, and incubated overnight at 4° C. Samples were washed with 5 ml 1× PBS and incubated with 500 μl of PI-Triton resuspension buffer at room temperature for ≥30 minutes protected from light. PI-Triton resuspension buffer was made of 0.1% Triton™ X-100, 200 μg/ml RNase A, 20 μg/ml PI (Invitrogen, #P3566) in 1× PBS. PI-stained samples were transferred to strainer tubes (BD Falcon) and run on FACSCalibur™ flow cytometry (BD Biosciences). Cell cycle profiles were analyzed utilizing the Dean-Jet-Fox™ model in FlowJo™ software (FlowJo™).

HA-tagged I-Sce1 = test: Quantitative RT-PCR of HA-tagged I-Sce1 expression; settings: 200 ng/ml colcemid or 2.5 mM thymidine, 48 hrs; normalized to HPRT
Method: To measure HA-tagged I-Sce1 expression levels, quantitative RT-PCR was performed as described in 2.4.5. Primers used are the following: HA-ISce1-FOR, 5′-[…]-3′ (SEQ ID NO: 143); ISce1-REV2, 5′-[…]-3′ (SEQ ID NO: 144); HPRT_F, 5′-[…]-3′ (SEQ ID NO: 145); HPRT_R, 5′-[…]-3′ (SEQ ID NO: 146).

SL13 cells [3] = test: Southern blot of genomic DNA for de novo telomere addition smear in arrested cells; settings: cells arrested in G1 phase versus control cells and G2/M cells
Excerpt: To examine the in vivo chr4 cleavage and de novo telomere addition, genomic DNA extracted from SL13 cells arrested at different cell phases and treated with doxycycline for various time points were digested with Ncol restriction enzyme (NEB) and further analyzed by Southern blot as described previously in Example 1 with a random primed α-32P-labeled HYG probe.

Row | SMILES | PacBio reads with de novo telomere addition in cells held in G2/M phase ([1]; 200 ng/ml colcemid, 48 hrs) | cell cycle phase of arrest (SL13 cells [2]) | I-Sce1 expression in cells arrested at different phases (HA-tagged I-Sce1) | elongation beyond the chr4 I-Sce1-induced cut base line ([1]; Southern blot analysis of STELA PCR products, 400 nM flavopiridol) | 'smear' representative of de novo telomere addition (SL13 cells [3])
1 | CN[C@H]1CCc2cc(OC)c(OC)c(OC)c2-c2ccc(OC)c(=O)cc21 [colcemid] | significant percentage of PacBio® reads with de novo telomere addition | arrested in G2/M phase | no significant difference | – | –
2 | CN1CC[C@H](c2c(O)cc(O)c3c(=O)cc(-c4ccccc4Cl)oc23)[C@H](O)C1 [flavopiridol] | – | – | – | minimal elongation | –
3 | Cc1cn([C@H]2C[C@H](O)[C@@H](CO)O2)c(=O)[nH]c1=O [thymidine] | – | G1/early S phase | no significant difference | – | even less ‘smear’
